Data as given in patent US10285400B2, “Disinfectant composition containing quaternary ammonium compounds” (LONZA, INC., priority 2014, dated 2019).

How the values were obtained:
[1] = system: Pseudomonas aeruginosa (Pa); experiment: OECD Quantitative Method for Evaluating Bacterial Activity of Microbiocides Used on Hard Non-Porous Surfaces; format: cell-based; conditions: diluted with 375 ppm hard water, test concentration as in test composition
Text: (§1) Bardac 2250, containing of 50% didecyldimethylammonium chloride and 10% ethanol from Lonza, was used for the formulations.

[2] = system: Staphylococcus aureus (Sa); experiment: as above; format: cell-based; conditions: diluted with 375 ppm hard water, test concentration as in test composition
Text: as §1

| SMILES | # Log Reduc. 5 min contact Pa [1] | # Log Reduc. 5 min contact Sa [2] |
| --- | --- | --- |
| OO [Sample 1, hydrogen peroxide] | 1.6 Log | 0.3 Log |
| OO [Sample 2, hydrogen peroxide] | 1.8 Log | 3.2 Log |
| OO [hydrogen peroxide] | ineffective | ineffective |
| CCCCCCCCCC[N+](C)(C)CCCCCCCCCC.[Cl-] [Sample 3, didecyldimethylammonium chloride] | 3.3 Log | – |
| CCCCCCCCCC[N+](C)(C)CCCCCCCCCC.[Cl-] [Bardac 22, didecyldimethylammonium chloride] | ineffective | ineffective |
